Holding throughout (test): biochemical
Common to all, as to type: binding

One assay addresses T1, FRK (Homo sapiens, UniProt P42685).
T1 construct: the DNA-tagged SH2 domain concentrations used in this study were <0.1 nM; made in house; host or cells: HEK293 (transient transfection; unpurified extract)

The next assay concerns the target T2, PIK3R1(SH2dom.C-term.) (Homo sapiens, UniProt P27986).
T2 construct: SH2dom.C-term. denotes SH2 domain closest to C-terminus of protein; made in house; host or cells: HEK293 (transient transfection, unpurified extract)
The conditions noted are these: for remaining activity at 10 µM: read-out: percent of DMSO vehicle control.

The next assay has as its target T3, SRC (Homo sapiens, UniProt P12931).
T3 construct: made in house; host or cells: HEK293 (transient transfection), unpurified extract
The conditions noted are these: for remaining activity at 10 µM: read-out: percent of DMSO vehicle control.

Another assay deals with T4, NCK1 (Homo sapiens, UniProt P16333).
T4 construct: the DNA-tagged SH2 domain concentrations used in this study were <0.1 nM; made in house; host or cells: HEK293 (transient transfection, unpurified extract)
The conditions noted are these: for remaining activity at 10 µM: read-out: percent of DMSO vehicle control.

For the next assay, the target named is T5, SH3BP2 (Homo sapiens, UniProt P78314).
T5 construct: made in house; host or cells: HEK293 (transient transfection), unpurified extract
T5 sequence (P78314 1-561): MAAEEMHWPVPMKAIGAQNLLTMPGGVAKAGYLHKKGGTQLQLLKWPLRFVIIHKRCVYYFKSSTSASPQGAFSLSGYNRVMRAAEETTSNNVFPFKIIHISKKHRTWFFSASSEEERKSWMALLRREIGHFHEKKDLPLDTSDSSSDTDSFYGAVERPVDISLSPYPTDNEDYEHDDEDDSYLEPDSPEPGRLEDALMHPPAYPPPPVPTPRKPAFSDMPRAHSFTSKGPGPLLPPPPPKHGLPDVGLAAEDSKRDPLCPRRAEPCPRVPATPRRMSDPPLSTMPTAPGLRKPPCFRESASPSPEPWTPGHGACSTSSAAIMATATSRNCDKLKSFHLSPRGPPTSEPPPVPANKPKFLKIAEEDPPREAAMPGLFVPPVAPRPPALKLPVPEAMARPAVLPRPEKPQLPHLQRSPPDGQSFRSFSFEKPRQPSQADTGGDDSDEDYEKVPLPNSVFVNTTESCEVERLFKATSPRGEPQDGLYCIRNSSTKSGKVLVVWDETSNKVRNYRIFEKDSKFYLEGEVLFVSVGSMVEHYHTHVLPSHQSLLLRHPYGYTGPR
The following applies: for remaining activity at 10 µM: read-out: percent of DMSO vehicle control.

In another assay the target is T6, ABL1 (Homo sapiens, UniProt P00519).
T6 construct: the DNA-tagged SH2 domain concentrations used in this study were <0.1 nM; made in house; host or cells: HEK293 (transient transfection; unpurified extract)
T6 sequence (P00519 127-217 limits assumed): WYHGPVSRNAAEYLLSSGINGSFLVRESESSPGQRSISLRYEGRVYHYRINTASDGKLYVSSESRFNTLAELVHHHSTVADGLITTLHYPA

For a further assay, the target named is T7, STAP1 (Homo sapiens, UniProt Q9ULZ2).
T7 construct: made in house; host or cells: HEK293 (transient transfection), unpurified extract
T7 sequence (Q9ULZ2 1-295): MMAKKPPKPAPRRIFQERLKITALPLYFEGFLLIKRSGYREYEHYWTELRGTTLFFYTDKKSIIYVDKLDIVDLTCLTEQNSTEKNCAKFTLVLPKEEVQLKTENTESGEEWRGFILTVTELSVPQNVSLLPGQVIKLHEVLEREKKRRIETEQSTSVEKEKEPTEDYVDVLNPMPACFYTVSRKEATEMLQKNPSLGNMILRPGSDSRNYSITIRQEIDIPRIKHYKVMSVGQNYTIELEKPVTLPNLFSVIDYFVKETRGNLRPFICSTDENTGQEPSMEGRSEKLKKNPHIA
The conditions noted are these: read-out: percent of DMSO vehicle control.

The next assay concerns the target T8, LYN (Homo sapiens, UniProt P07948).
T8 construct: the DNA-tagged SH2 domain concentrations used in this study were <0.1 nM; made in house; host or cells: HEK293 (transient transfection, unpurified extract)
The following applies: for remaining activity at 10 µM: read-out: percent of DMSO vehicle control.

The target of a further assay is T9, VAV2 (Homo sapiens, UniProt P52735).
T9 construct: made in house; host or cells: HEK293 (transient transfection), unpurified extract
T9 sequence (P52735 1-878): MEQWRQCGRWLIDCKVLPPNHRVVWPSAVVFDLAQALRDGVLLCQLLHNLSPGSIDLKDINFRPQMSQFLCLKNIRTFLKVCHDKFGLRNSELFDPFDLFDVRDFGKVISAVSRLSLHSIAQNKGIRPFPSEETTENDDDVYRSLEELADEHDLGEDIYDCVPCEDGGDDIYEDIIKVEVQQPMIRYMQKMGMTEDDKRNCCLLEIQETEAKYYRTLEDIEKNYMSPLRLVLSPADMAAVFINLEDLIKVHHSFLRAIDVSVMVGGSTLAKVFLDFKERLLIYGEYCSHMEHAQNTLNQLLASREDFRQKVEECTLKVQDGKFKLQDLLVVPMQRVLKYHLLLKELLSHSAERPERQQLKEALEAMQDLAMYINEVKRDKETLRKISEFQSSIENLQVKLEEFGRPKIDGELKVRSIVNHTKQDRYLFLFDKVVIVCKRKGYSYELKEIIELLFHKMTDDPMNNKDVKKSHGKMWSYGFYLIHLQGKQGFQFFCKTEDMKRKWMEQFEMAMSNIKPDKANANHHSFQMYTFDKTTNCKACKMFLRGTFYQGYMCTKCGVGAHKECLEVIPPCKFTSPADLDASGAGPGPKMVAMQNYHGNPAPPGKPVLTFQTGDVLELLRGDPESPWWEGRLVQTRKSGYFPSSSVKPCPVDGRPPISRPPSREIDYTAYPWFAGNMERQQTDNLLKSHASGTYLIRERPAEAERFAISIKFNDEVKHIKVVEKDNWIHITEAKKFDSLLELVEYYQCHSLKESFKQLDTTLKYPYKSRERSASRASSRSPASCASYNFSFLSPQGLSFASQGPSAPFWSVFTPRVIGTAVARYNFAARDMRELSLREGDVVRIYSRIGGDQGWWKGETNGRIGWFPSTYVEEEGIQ
The conditions noted are these: for remaining activity at 10 µM: read-out: percent of DMSO vehicle control.

A further assay has as its target T10, APS (SH2B2) (Homo sapiens, UniProt O14492).
T10 construct: the DNA-tagged SH2 domain concentrations used in this study were <0.1 nM; made in house; host or cells: HEK293 (transient transfection; unpurified extract)

Another assay has as its target T11, RASA1(SH2dom.N-term.) (Homo sapiens, UniProt P20936).
T11 construct: SH2dom.N-term. denotes SH2 domain closest to N-terminus of protein; made in house; host or cells: HEK293 (transient transfection), unpurified extract
T11 sequence (P20936 181-272 limits assumed): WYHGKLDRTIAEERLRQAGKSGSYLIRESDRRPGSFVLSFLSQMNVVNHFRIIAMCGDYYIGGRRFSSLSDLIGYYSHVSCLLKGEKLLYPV
The conditions noted are these: for remaining activity at 10 µM: read-out: percent of DMSO vehicle control.

Where [1] appears, read: primary screen, 10 μM, read-out: percent of DMSO vehicle control.
The mark [2] stands for this setting: read-out: percent of DMSO vehicle control.

Like-named read-outs stand apart in the source and are kept apart here. Non-standard residues stand in square brackets, D forms with d. Residues, ends and D or L forms follow the SMILES beside them. *: point of attachment. pY = N[C@@H](Cc1ccc(OP(=O)(O)O)cc1)C(=O)O; Caffeoyl = O=C(/C=C/c1ccc(O)c(O)c1)*

T2 sequence (P27986 624-718 limits assumed): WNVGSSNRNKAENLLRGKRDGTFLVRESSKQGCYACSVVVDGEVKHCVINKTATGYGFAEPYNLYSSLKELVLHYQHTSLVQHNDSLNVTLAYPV
T3 sequence (P12931 whole entry): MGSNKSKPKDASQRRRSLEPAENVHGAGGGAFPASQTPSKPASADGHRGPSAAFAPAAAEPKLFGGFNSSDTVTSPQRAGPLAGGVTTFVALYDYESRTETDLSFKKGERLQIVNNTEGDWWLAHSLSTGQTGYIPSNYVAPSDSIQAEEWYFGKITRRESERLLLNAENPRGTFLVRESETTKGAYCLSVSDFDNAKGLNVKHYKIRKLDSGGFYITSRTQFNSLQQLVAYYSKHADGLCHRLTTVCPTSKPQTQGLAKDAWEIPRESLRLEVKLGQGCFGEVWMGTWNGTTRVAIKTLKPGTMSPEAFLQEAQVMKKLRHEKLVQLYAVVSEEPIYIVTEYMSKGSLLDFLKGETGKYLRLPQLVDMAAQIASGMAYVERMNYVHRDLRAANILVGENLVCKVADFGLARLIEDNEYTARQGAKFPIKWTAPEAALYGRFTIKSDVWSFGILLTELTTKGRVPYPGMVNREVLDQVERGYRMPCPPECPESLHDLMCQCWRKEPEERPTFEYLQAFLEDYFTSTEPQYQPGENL
T10 sequence (O14492 417-515 limits assumed): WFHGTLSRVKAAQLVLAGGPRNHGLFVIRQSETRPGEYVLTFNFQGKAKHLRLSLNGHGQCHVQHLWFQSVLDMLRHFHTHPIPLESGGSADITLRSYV
T8 sequence (P07948 129-226 limits assumed): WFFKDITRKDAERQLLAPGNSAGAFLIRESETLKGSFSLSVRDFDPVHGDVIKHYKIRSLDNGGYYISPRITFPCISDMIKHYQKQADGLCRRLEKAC
T1 sequence (P42685 116-208 limits assumed): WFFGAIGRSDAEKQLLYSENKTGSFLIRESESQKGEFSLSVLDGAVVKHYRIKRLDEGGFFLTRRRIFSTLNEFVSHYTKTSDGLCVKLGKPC

Regarding `O=C(CCl)Nc1cccc(CNC(=O)[C@H](Cc2ccc(OP(=O)(O)O)cc2)NC(=O)Cc2ccc(F)cc2)c1` [MN551], the remaining activity at 10 µM on FRK (setting [1]) was 69 ± 8.3%; at PIK3R1(SH2dom.C-term.) (primary screen, 10 μM) it was 52.4%; on SRC (primary screen, 10 μM), 70.2 ± 6.8%; at NCK1 (primary screen, 10 μM) it was 67.4 ± 5.3%; at SH3BP2 (primary screen, 10 μM), 109%; on ABL1 (setting [1]), 35.7 ± 4.3%. For the same molecule, the remaining activity at 10 µM at STAP1 (primary screen, 10 μM) is 84.3 ± 2.8%; on LYN (primary screen, 10 μM) it was 161%; on VAV2 (primary screen, 10 μM) it was 77.8 ± 4.8%; at APS (SH2B2) (setting [1]), 94.2 ± 3.2%; at RASA1(SH2dom.N-term.) (primary screen, 10 μM), 94.2 ± 3%.
What is called Kd is the constant that tells how readily two partners part at equilibrium. As for `CC(=O)N[C@@H](Cc1ccc(CP(=O)(O)O)cc1)C(=O)NC1(C(=O)N[C@@H](CC(N)=O)C(=O)NCCCc2c(O)ccc3ccccc23)CCCCC1` [CGP78850], the percent of DMSO vehicle control at 10 µM on FRK (setting [2]) is 89.4 ± 19.2%; on APS (SH2B2) (setting [2]), 128 ± 7.6%. The Kd on PIK3R1(SH2dom.C-term.) was 150 nM; on ABL1, 560 ± 360 nM. For the same molecule, the remaining activity at 10 µM at PIK3R1(SH2dom.C-term.) stood at 0%; at SRC, 99.2 ± 4.1%; on NCK1 it was 104 ± 4.8%; at SH3BP2, 77.8 ± 0.5%; on STAP1, 113 ± 2.6%; at LYN, 40%. The results for the remaining activity at 10 µM at VAV2 and at RASA1(SH2dom.N-term.) were 50.4 ± 7.8% and 47.6 ± 2.5%, respectively. In addition, at ABL1 (setting [2]), the percent of DMSO control binding at 10 µM is 3.1 ± 1.7%.
As for `CC(=O)N1CC[C@H]2CC[C@@H](C(=O)N[C@@H](CCC(N)=O)C(=O)NC(c3ccccc3)c3ccccc3)N2C(=O)[C@@H](NC(=O)c2cc3cc(C(F)(F)P(=O)(O)O)ccc3[nH]2)C1` [SI-109], the percent of DMSO vehicle control at 10 µM at FRK (setting [2]) was determined as 151%; on APS (SH2B2) (setting [2]), 130%. The remaining activity at 10 µM on PIK3R1(SH2dom.C-term.) was found to be 128%; on SRC, 117%; at NCK1, 124%; at SH3BP2 it was 131%; on STAP1, 104%; on LYN, 140%. In addition, the remaining activity at 10 µM was 119% at VAV2 and 123% on RASA1(SH2dom.N-term.). Also, the percent of DMSO control binding at 10 µM at ABL1 (setting [2]) turned out to be 132%.
In the case of `CC[C@H](C)[C@H](NC(=O)[C@H](CCC(=O)O)NC(=O)[C@H](CCC(=O)O)NC(=O)[C@H](Cc1ccc(OP(=O)(O)O)cc1)NC(=O)/C=C/c1ccc(O)c(O)c1)C(=O)N[C@@H](CCC(=O)O)C(=O)O` [Caffeic acid-pYEEIE] (Caffeoyl-[pY]EEIE-OH), the Kd on FRK was 2.2 ± 0.47 nM; at PIK3R1(SH2dom.C-term.), 140 ± 100 nM; at SRC it was 4.8 ± 1.3 nM; at NCK1, 97 ± 71 nM; on SH3BP2 it was 1020 ± 600 nM; at ABL1, 105 ± 17 nM. The dissociation constant Kd on LYN stood at 1 ± 0.34 nM; at VAV2, 58 ± 40 nM; at APS (SH2B2), 2300 ± 450 nM; on RASA1(SH2dom.N-term.), 230 ± 410 nM. The percent of DMSO vehicle control at 10 µM at FRK (setting [2]) turned out to be 0.1 ± 0.1%; on APS (SH2B2) (setting [2]), 2.2 ± 0.3%. Moreover, the remaining activity at 10 µM was 0.2 ± 0.1% on PIK3R1(SH2dom.C-term.); 0% on SRC; 0.8 ± 0.1% at NCK1; 0.9 ± 0.3% on SH3BP2; 77.9 ± 1% on STAP1; 0% at LYN. Also, the remaining activity at 10 µM worked out at 0.5 ± 0.1% at VAV2 and 0.1% at RASA1(SH2dom.N-term.). The percent of DMSO control binding at 10 µM at ABL1 (setting [2]) was found to be 0%.

Source of the values: PMC12951562, “SH2scan: Mapping SH2 Domain-Ligand Binding Selectivity for Inhibitors and Degraders” (Journal of Medicinal Chemistry, 2026).
